Measurements taken from a melting point compilation (Tetko et al.; mined from patent text by program, amines drawn as free bases though some values may be those of a salt).

SMILES | melting point
CC(C)Oc1ccc(-c2ccc3oc(C4CCN(C(=O)OC(C)(C)C)CC4)nc3c2)cc1F | 124 to 128 °C
CN1C(=O)CN=C(c2ccccc2F)c2cc(NC(=O)NCCCl)ccc21 | 240 °C
OCc1ccc(OCc2ccccc2)cn1 | 66 to 68 °C
C[C@@H]1C(=O)C[C@H]2C[C@@H]1OO[C@@]2(C)/C=C\c1ccc(Cl)cc1Cl | 137 °C
COc1ccc(C2N(C(C)=O)c3ccccc3-c3c([N+](=O)[O-])cnn32)cc1 (stereo not drawn) | 153 to 154 °C
CC(=O)OCC1OC(SCC#N)C(OC(C)=O)C(OC(C)=O)C1OC(C)=O (stereo not drawn) | 97 °C
CCN(CC)c1ccc(NC(C)=O)c(C)c1 | 114 to 115 °C
CC(C)(C)N(O)CP(=O)(OCc1ccccc1)OCc1ccccc1 | 106 to 107 °C
COCC(=O)NCC(=O)N1CC1C#N (stereo not drawn) | 70 to 72 °C
COc1cccc(C(=O)Nc2ccc(N3CCN(Cc4cccc(C#N)c4)CC3)cc2)c1-c1ccc(C(C)C)cc1 | 179 °C
Cc1oc(-c2ccccc2)nc1COc1ccc(CCc2oc(-c3ccccc3)nc2CC(=O)O)cc1 | 180 to 181 °C
COC(=O)C1=C(C)Nc2ncnc(OC(C)C)c2C1c1cccc([N+](=O)[O-])c1 (stereo not drawn) | 218 to 219 °C
O=C(NS(=O)(=O)c1ccc(Cl)cc1)C1=NN(c2ccc(Cl)cc2)C(c2ccccc2)C1 (stereo not drawn) | 226 to 229 °C
Cc1oc2ccc(O)cc2c(=O)c1Cc1cccc(NS(=O)(=O)C(F)(F)F)c1 | 232 to 234 °C
O=C1C=C(Cc2ccccc2)CC1 | 32 to 33 °C
COC(=O)C1(O)C(=O)Nc2ccc(C(F)(F)F)cc2CC1c1ccc(OC)cc1 (stereo not drawn) | 196 to 198 °C
O=C1Cc2ccc(Cl)cc2C(c2ccccc2)C1 (stereo not drawn) | 61 to 62 °C
CCn1c(=O)n(OCc2ccccc2)c(=O)c2cc(F)c(Cl)nc21 | 156 to 157 °C
CC(C)c1c(C=CC2CC(O)CC(O)O2)n(-c2ccc(Cl)cc2)c(=O)c2ccccc12 (mixture of isomers) | 181 to 185 °C
N#CCc1cccc2c(=O)cc(C3(Br)CCCCC3)oc12 | 144 to 145 °C
Clc1cc2nc(NC3CC3)[nH]c2cc1Cl | 223 to 225 °C
Fc1ccc(N2CCN(CCCc3cnc4n3CCCC4)CC2)cc1 | 106 to 108 °C
CC(C)[N+]([O-])=Cc1cccc(N)c1 | 103 to 106 °C
Cc1noc(C=Cc2ccccc2O)n1 | 184 to 186 °C
CNC(=O)NCCN1CCC(Nc2nc3ccccc3n2Cc2ccc(F)cc2)C1 (stereo not drawn) | 161 °C

SMILES | melting point
O=C(CCc1cnoc1-c1ccccc1)Nc1ccc(CP(=O)(O)O)cc1 | 162 to 164 °C
COC1c2ccccc2C(c2ccc([N+](=O)[O-])cc2)=NN(c2nc(=O)n(C)s2)C1(C)OC (stereo not drawn) | 262 to 263 °C
CC(C)c1cc2cc([N+](=O)[O-])ccc2o1 | 73 °C
COC(=O)CC(=O)CS(=O)(=O)C(c1ccc(Cl)cc1)c1ccc(Cl)cc1 | 76 to 78 °C
COC(=O)c1sc2c(c1N)c1ccccc1c(=O)n2-c1ccccc1C | 236 to 237 °C
Cc1c(N)c(C)c(C(C)C)c2c1CC(C)(CI)O2 (stereo not drawn) | 84 to 86 °C
NC(=O)c1cccc(CN2C(=O)C3(COc4cc5c(cc43)OCCO5)c3ccccc32)c1 (stereo not drawn) | 130 to 135 °C
CC#CCOc1ccc(S(=O)(=O)C(C(=O)NO)C2CCNCC2)cc1 (stereo not drawn) | 140 °C
O=C(/C=C/c1ccn(S(=O)(=O)c2ccc3ccccc3c2)c1)NO | 153 °C
CNC1CCN(c2c(F)c(N)c3c(=O)c(C(=O)O)cn(C4CC4)c3c2C)C1 (stereo not drawn) | 200 to 202 °C
c1ccc(-c2nc(COc3cccc(CCCn4ccnc4)c3)cs2)cc1 | 63 to 64 °C
COC(=O)Cc1ccc(OCCNC(=O)C2Cc3ccccc3N2S(=O)(=O)c2ccc(-c3cc(C(F)(F)F)ccc3OC)cc2)cc1 (stereo not drawn) | 61 to 64 °C
O=C(Nc1cccc2c1C(=O)N(CCN1CCN(c3ccncc3)CC1)C2=O)c1ccc(Cl)s1 | 168 °C
O=C(C=Cc1ccc(CNCC2CCCCC2O)cc1)Nc1ccc(-c2ccc(Cl)cc2)cc1 (stereo not drawn) | 210 to 211 °C
CCSc1cc2c(cc1OC)CCn1c-2cc2c1C(=O)N(C(C)(C)C)CCCC2 | 124 to 125 °C
CCOC(=O)C(NC(C)=O)(C(=O)OCC)C1=Nc2ccc(Cl)cc2C(c2ccccc2F)=NC1 | 150 to 180 °C
COc1ccc(C(=O)Nc2ccccc2)cc1NS(=O)(=O)c1cc(Cl)sc1Cl | 189 to 190 °C
Cc1ccc(C(=O)Nc2cccc(C(F)(F)F)c2)cc1/C=C/n1cnc2c(NC3CC3)ncnc21 | 201 °C
CCOC(=O)C1CNC(=O)CC1c1ccc(F)cc1 (stereo not drawn) | 116 to 120 °C
CC(C)OC(=O)N1CCC(c2nc3cc(-c4ccc(C(F)F)cc4)ccc3o2)CC1 | 151 to 154 °C
Cc1ncnc(C)c1C(=O)N1CC2CN(CCC(NC(=O)C3CCCC3)c3ccccc3)CC2C1 (stereo not drawn) | 48 to 49 °C
CC1Cc2ccc(Br)cc2C(c2ccc([N+](=O)[O-])cc2)O1 (stereo not drawn) | 130 to 133 °C
COC(=O)CCCC(=O)N(CCc1c[nH]c2ccccc12)Cc1ccccc1 | 107 to 108 °C
CC(=O)c1c(-c2ccc(S(C)=O)cc2)[nH]c(-c2ccncc2)c1C (stereo not drawn) | 249 to 250 °C
CN(C)CCC(c1ccc(C(=O)NN)cc1)c1ncc[nH]1 (stereo not drawn) | 168 to 170 °C

SMILES | melting point
CC1(C)CC(=O)C1(Br)CC(Br)(Br)Br (stereo not drawn) | 61 to 63 °C
N#CC(CCN1CCC(C(=O)ON2C(=O)CCC2=O)(c2ccccc2)CC1)(c1ccccc1)c1ccccc1 | 156 to 158 °C
C=C(C)C(=O)OCCc1ccc(-c2ccc(OC(=O)C(=C)C)cc2)cc1 | 108 °C
COc1ccc(CC2SC(=O)NC2=O)c2c1N(Cc1ccc(C(=O)Nc3ccc(C(C)C)cc3)cc1)C(=O)CC2 (stereo not drawn) | 243 to 244 °C
Cc1c(NC(=O)C(CS)CC(C)C)cccc1C(=O)O (stereo not drawn) | 166 to 168 °C
CC(C)=CC(=O)Nc1ccccc1CCN1CCN(c2nsc3ccccc23)CC1 | 52 °C
Nc1c(-c2ccc(-c3ccccc3F)cc2)nc2ccc(F)cc2c1C(=O)O | 248 to 250 °C
O=C(O)C1=Cc2cc(-c3ccc(OC(F)(F)F)cc3)ccc2S(=O)(=O)CC1 | 284 to 285 °C
CCC(=NNc1ccccc1)c1cc(Cl)ccc1NS(=O)(=O)C(F)(F)F | 128 to 129 °C
COC(CC(=O)c1cccc(Br)c1)C(=O)O (stereo not drawn) | 82.5 to 83.5 °C
COc1ccc2c(c1)-c1noc(N3CCNCC3)c1CC2 | 86 to 88 °C
COc1ccc(-c2c(NC(=O)Nc3ccc(F)cc3F)c(=O)n(C)c3ccc(C)cc23)cc1OC | 231 to 233 °C
Oc1cccnc1Sc1cccc(Br)c1 | 125 to 126 °C
CC(=O)Nc1ccc2c3c(cccc13)S(=O)(=O)N2CCCCl | 205 °C
OC1CSC(Oc2cccc(-c3ncccc3F)c2)C(O)C1O (stereo not drawn) | 150 °C
NC1CCc2[nH]c3ccccc3c2C1 (stereo not drawn) | 160 to 166 °C
OC(CN1CC=C(c2ccc(Cl)cc2)CC1)c1ccc(Cl)cc1 (stereo not drawn) | 152 to 153 °C
Cc1cc(F)ccc1NC(=O)c1cc([N+](=O)[O-])ccc1NC(=O)CF | 237 to 239 °C
CCCCCCCCCCCCCCCCOCCSCCOC(=O)N(Cc1ccccn1)C(C)=O | 41 to 44 °C
CC(C)c1cccc(C(C)C)c1OC(=O)c1ccccc1 | 80 to 81 °C
O=[N+]([O-])c1cnc(Sc2nnc(O)n2-c2ccccc2)s1 | 188 to 190 °C
C/C(=C(\C#N)C(=S)/N=C/N(C)C)N1CCCN(c2ccc(C#N)cc2)CC1 | 120 to 126 °C
Cc1noc(NS(=O)(=O)c2ccccc2-c2ccc(-c3ncco3)cc2Cn2c(=O)oc3ccccc32)c1C | 130 to 137 °C
Cn1c([N+](=O)[O-])cnc1-c1nc2ccccc2[nH]1 | 257 °C
CC1NC(=O)NN=C1c1ccc(C#N)cc1 (stereo not drawn) | 268 to 269 °C

SMILES | melting point
COC(=O)COc1cc(C(C)C)c(SC#N)cc1C | 67 to 69 °C
Clc1nc2ccnn2c2ncccc12 | 160 °C
COC(=O)CSC(C)c1ccc(-c2ccc(OC)cc2)cc1 (stereo not drawn) | 59 to 61 °C
CC(C)(C)OC(=O)C1CCCC(c2ccccc2)N1 (stereo not drawn) | 68 °C
CCN(CC)C(=S)NC1CC2c3cccc4[nH]c(I)c(c34)CC2N(C)C1 (stereo not drawn) | 198 °C
CCCCN(C(=O)C(C)C)c1ccc(-c2ccccc2)o1 | 87 °C
CC(C)[C@H](NC(=O)N(C)Cc1csc(C2CC2)n1)C(=O)N[C@@H](Cc1ccccc1)C[C@H](O)[C@H](Cc1ccccc1)NC(=O)OCc1cncs1 | 70 to 71 °C
CCC(=S)C1=C(C)NC2=C(C(=O)c3ccccc32)C1c1ccccc1 (stereo not drawn) | 248 to 249 °C
CC(C)(NC=O)c1cccc(C(F)(F)C(F)(F)c2ccccc2)c1 | 90 to 95 °C
CCCCCC1=C(c2ccc(F)cc2)C(=NO)CC1 | 101 to 102 °C
COC(=O)c1cc(-c2cccc(C(F)(F)F)c2)c(=O)n2ccccc12 | 147 to 148 °C
NC(=O)CC[C@H]1CC[C@@H](c2ccc(F)cc2)N1S(=O)(=O)c1ccc(Cl)cc1 (racemic) | 114 °C
CCOC(=O)C1=CC2(CCC1S(=O)(=O)Nc1ccc(F)cc1Cl)OC(CC)C(CC)(CC)O2 (stereo not drawn) | 124 to 126 °C
O=c1cc(-c2ccncc2)nc(-c2cccnc2)[nH]1 | > 300 °C
CCCc1nc(Cl)nc(NCCO)n1 | 87 to 88 °C
CS(=O)c1n[nH]c2ccc(C(F)(F)F)cc12 (stereo not drawn) | 168 to 170 °C
Nc1cc(C(=O)c2cccc(C(=O)c3ccc(Cl)c(N)c3)c2)ccc1Cl | 209 °C
O=C1CCC(Cc2c[nH]c3ncccc23)N1 (stereo not drawn) | 160 to 162 °C
COc1cc(O)c(C(=O)C=Cc2ccc(OCc3ccccc3)c(OC)c2)c(OC)c1 | 131 °C
O=c1[nH]c(NCCCN(Cc2ccccc2)c2ccccn2)ncc1Cc1ccncc1 | 87 to 89 °C
CSc1cc(C)nc(SC)c1NC(=O)CCCSc1nc2ccccc2s1 | 131 to 133 °C
CCCCOc1ccc(S(=O)(=O)NC(=O)c2ccc(C(=O)OC)nc2)cc1 | 174 to 176 °C
Nc1ncnc2c1ncn2COCCN1C(=O)c2ccccc2C1=O | 256 to 258 °C
